Test results as given in patent US20220062247A1, “USE OF A PAR-1 ANTAGONIST FOR THE TREATMENT OF A CHRONIC INFLAMMATORY INTESTINAL DISEASE” (CVASTHERA, priority 2018, published 2022).

Legend:
induced colitis = induced colitis model in mice, by reducing the inflammation phenomenon; cited from earlier work
[1] = test system: inflammatory bowel disease induced by 2,4,6-trinitrobenzenesulfonic acid (TNBS); test: Colitis induced by intra-colonical TNBS in rats (body weight, DAI score, colon wall thickness, macroscopic damage score, MPO); format: in vivo, male laboratory rat of the Wistar strain
Excerpt: The purpose of this study is to assess the effectiveness of two PAR-1 antagonists, vorapaxar and 3-2-(chloro-phenyl)-1-[4-(4-fluoro-benzyl)-piperazine-1-yl]propenone (hereinafter, referred to as CSI) in a model of an inflammatory bowel disease induced by 2,4,6-trinitrobenzenesulfonic acid (TNBS) in a male laboratory rat of the Wistar strain. This model is described in the publication of Whittle et al., 2003, in Methods Mol. Biol., 225, 209-222.
In this induced colitis model, the inflammatory reaction is measured every day and is well established 7 days after intra-colonical administration of TNBS.
(§1) Different parameters are measured: the weight of the rats, the presence of blood in the faeces and the diarrhoeas assessed by the disease activity index (DAI score), the intensity of pain (assessed by Von Frey filaments technique measured on days 3 and 7).
The rats are sacrificed 7 days after the beginning of the treatment and the macroscopic damages, the oedema and a marker of the inflammation, myeloperoxidase (MPO), are quantified.
The experiments with the PAR-1 antagonists are carried out in two studies, relating to vorapaxar and CSI, respectively.
The colitis is induced by intra-colonical administration of 2,4,6-trinitrobenzenesulfonic acid (TNBS) (30 mg of TNBS in 0.25 ml of a 50% ethanol/NaCl solution) via a catheter (polyethylene (PE)-60) inserted 8 cm proximally from the anus.
Four groups of 10 rats receive an intra-colonical administration of TNBS, as well as a per os treatment of vorapaxar at the dose of 2.5 mg/kg/day or of CSI at doses of 10 and 40 mg/kg/day or of prednisolone (a compound proposed by the prior art for the treatment of IBDs) at the dose of 3 mg/kg/day. The per os treatments start 1 h before the intra-colonical administration of TNBS.
As a negative comparative example, 1 group of 10 rats receives an intra-colonical administration of TNBS and of the vorapaxar vehicle (phosphate buffered saline—PBS) or of the CSI vehicle (carboxymethyl cellulose—CMC at 1%) per os daily.
Moreover, 1 group of 6 control rats receives an intra-colonical administration of NaCl instead of TNBS.
The DAI score is determined as follows. The development of the disease is estimated on a daily basis. The consistence of the excrements, as well as the presence of blood in the faeces assessed with the Hemoccult® paper test, are respectively quantified by the seriousness scales of Table 3 hereinbelow. The obtained values are added together to obtain the DAI score.
The macroscopic damage score is assessed according to the protocol described in the publication of Comera et al., 1999, Dig. Dis. Sci. 44: 1448-1457, as follows. On day 7 after induction of the colitis, the rats are sacrificed by carbon dioxide CO2 inhalation, the colon (from the anus to the Caecum) is removed and the macroscopic damages are assessed according to the parameters observed and presented in Table 4 hereinbelow, to determine the macroscopic damage score.

[2] = test system: human colon epithelial cells Caco2; test: Epithelial cells repair: cicatrisation of a lesion on a Caco2 monolayer; format: cell-based
Description: A lesion is practiced using a sterilised forceps on human colon epithelial cells Caco2 in monolayer and at a confluence. Afterwards, the cells are rinsed twice with sterilised […] and then placed in an adequate culture medium. In this medium, vorapaxar at different concentrations (10 nM, 100 nM, 1 μM, 10 μM) or the vehicle (control) are added in independent culture dishes. The cicatrisation of the lesion is supervised and analysed using a confocal microscope for 28 h. The percentage of the lesioned surface of the lesion is determined for each tested condition, 4 h, 22 h and 28 h after the lesion. The obtained results are shown in FIG. 12, respectively in a/, b/ and c/.

[3] = test system: nociceptive response induced by TNBS; test: Nociceptive response (allodynia) by Von Frey filaments technique in TNBS colitis rats; format: in vivo, rat; settings: 2.5 mg/kg/day, 7 days after colitis induction
Description: as §1
The intensity of the pain is measured by the Von Frey filaments technique on days […], according to the protocol described in the publication of Auge et al., 2013, Eur. J. Pharmacol. 707: 32-40.
The effect on the nociceptive response, measured by Von Frey filaments technique according to the mass of Von Frey filaments, is shown in FIG. 10 for prednisolone and in FIG. 11 for vorapaxar.

Compound	survival rate of animals (induced colitis)	disease activity index (DAI) ([1]; 2.5 mg/kg daily, 7th day)	apparition of oedema (thickness of the wall of the colon) ([1]; 2.5 mg/kg daily, 7th day, vs vehicle group)	disease activity index (DAI) ([1]; 2.5 mg/kg, as of the 1st day, vs vehicle group)	weight loss (body weight) ([1]; 2.5 mg/kg/day per os, as of the 2nd day)	macroscopic damage score ([1]; 2.5 mg/kg/day, day 7, vs vehicle group)	cicatrisation of the lesion (percentage of the lesioned surface) ([2]; Caco2, 4 h after the lesion, 100 nM, 1 μM and 10 μM)	cicatrisation of the lesion (percentage of the lesioned surface) ([2]; Caco2, 22 h after the lesion, 10 nM to 10 μM)	cicatrisation of the lesion (percentage of the lesioned surface) ([2]; Caco2, 28 h after the lesion, from 100 nm to 10 μM)	allodynia-type response (Von Frey) [3]
COc1ccc(C[C@H](NC(=O)Nc2ccc3c(CN4CCCC4)cn(Cc4c(Cl)cccc4Cl)c3c2)C(=O)N[C@@H](CCCNC(=N)N)C(=O)NCc2ccccc2)cc1 [L-arininamide-4-methoxy-N-[[[1-[92,6-dichlorophenyl-methyl]-3-(1-pyrrolidinylmethyl)-1H-indol-6-yl]amino]carbonyl]-1-phenylalanyl-N-(phenylmethyl)-(5)]	improving the survival rate	–	–	–	–	–	–	–	–	–
CCOC(=O)N[C@@H]1CC[C@@H]2[C@@H](C1)C[C@H]1C(=O)O[C@H](C)[C@H]1[C@H]2/C=C/c1ccc(-c2cccc(F)c2)cn1 [vorapaxar, ethyl N-[(1R,3aR,4aR,6R,8aR,9S,9aS)-9-[(E)-2-[5-(3-fluorophenyl)pyridin-2-yl]ethenyl]-1-methyl-3-oxo-3a,4,4a,5,6,7,8,8a,9,9a-decahydro-1H-benzo[f][2]benzofuran-6-yl]carbamate]	–	significantly reduces	significantly reduces	significantly reduced	significantly reduces	significantly reduces	highly enhanced	amplifies the cicatrisation surface in a concentration-dependent way	complete cicatrisation	significantly inhibits
